In brackets after ≈: the same amount, converted by molar mass. Positions of bridges follow the written chain, without caps; N, C: chain ends. Non-standard residues stand in square brackets, D forms with d. Residues, ends and D or L forms follow the SMILES beside them. ξ: configuration not given here. *: point of attachment. Hexanoyl(4ξ-Me) = CCC(C)CCC(=O)*; dOrn = NCCC[C@@H](N)C(=O)O; Orn = NCCC[C@H](N)C(=O)O
Legend:
[1] = system: Enterobacter cloacae NRRL-B-413; type: cell-based; details: NRRL-B-413
Description: (§1) Minimum inhibitory concentration (MIC) was determined by broth microdilution according to CLSI guidelines. The test medium for most species was Mueller-Hinton broth (MHB). Bacteria were grown overnight to early stationary phase and adjusted in MHB to 5.0×10^5 colony-forming units per mL (c.f.u./mL) in the wells of 96-well microtiter plates, mixed with varying concentrations of test compounds and incubated at 37° C. for 24 h. […] MHBs containing 10% fetal bovine serum (Gibco), 21 mM MgCl, or 1.0 mg/ml LPS (lipopolysaccharides from Escherichia coli O55:B5, Sigma-Aldrich) were used to test their inhibitory effects.

Candida albicans = type: cell-based
Description: as §1

[2] = system: Pseudomonas aeruginosa PAO1; type: cell-based; details: PAO1
Description: as §1

[3] = system: Klebsiella pneumoniae NRRL-B-408; type: cell-based; details: NRRL-B-408
Description: as §1

Bacillus subtilis 168 = type: cell-based; details: 168
Description: as §1

Acinetobacter baumannii = type: cell-based
Description: as §1

[4] = system: Methicillin-resistant Staphylococcus aureus ATCC 43300; type: cell-based
Description: as §1

E. coli Top10 = experiment: Bacterial growth kinetics; type: cell-based, Escherichia coli; details: E. coli cells exposed to compound
Description: A fresh single colony of E. coli Top10 was inoculated into MHB (5 mL) and grown with shaking at 225 rpm overnight. The bacteria were diluted to 1×10^5 c.f.u./mL in fresh MHB, grown […] to early log-phase (OD=0.15) and treated with the antibiotics of interest in the wells of a 96-well plate. Final antibiotic concentrations varied from 1×MIC to 8×MIC. The plate was then incubated at 30° C. overnight, with OD 600 measurements taken every 30 seconds.

With CCC(C)CCC(=O)N[C@H](CC(N)=O)C(=O)N[C@H](Cc1ccc(O)cc1)C(=O)N[C@H](Cc1c[nH]c2ccccc12)C(=O)N[C@H](CCCN)C(=O)N[C@@H](CCCN)C(=O)NCC(=O)N[C@H](CCCN)C(=O)N[C@@H](Cc1c[nH]c2ccccc12)C(=O)N[C@@H]1C(=O)N[C@@H]([C@@H](C)CC)C(=O)NCC(=O)N[C@H](CO)C(=O)O[C@@H]1C (stereo partly drawn) [Compound 1, 4-Methyl-Hexanoyl-D-Asn-D-Tyr-D-Trp-D-Orn-Orn-Gly-D-Orn-Trp-Thr-Ile-Gly-Ser (cyclized via lactone formation between Thr and the C-terminus)] ({Hexanoyl(4ξ-Me)}-[dN][dY][dW][dOrn][Orn]G[dOrn]WTIG[dS]; ester 9-C) the MIC [1] was 2 µg/mL (≈ 1.32 µM), the “MIC En” value [1] was 2 µg/mL (≈ 1.32 µM) and the MIC (Candida albicans) was >64 µg/mL. The “MIC Ca” value (Candida albicans; Table 2, Candida albicans) was “ND (ND >64 μg/ml)”, the MIC [2] was 1 µg/mL (≈ 0.658 µM) and the “MIC Pa” value [2] was 1 µg/mL (≈ 0.658 µM). The MIC [3] was 2 µg/mL (≈ 1.32 µM), the MIC (Bacillus subtilis 168) was 32 µg/mL (≈ 21.1 µM) and the “MIC Bs” value (Bacillus subtilis 168) was 32 µg/mL (≈ 21.1 µM). The MIC (Acinetobacter baumannii) was 16 µg/mL (≈ 10.5 µM), the “MIC Ab” value (Acinetobacter baumannii) was 16 µg/mL (≈ 10.5 µM) and the MIC ([4]; ATCC 43300) was >64 µg/mL. For the same compound, the “MIC MRSA” value ([4]; Table 2, Methicillin-resistant Staphylococcus aureus ATCC 43300) was “ND (ND >64 μg/ml)” and the “time of growth at a reduced rate before steady decrease in cell count” value (E. coli Top10) was 30 min.
